How the values were obtained:
[1] = test system: mice (tail electrical stimulation, absence of squeak); assay: Analgesic Activity (Electrical Stimulation Method); type: in vivo, mouse; conditions: male mice, intraperitoneal, tail stimulated 5 s, 25 volts, 40 msec., 1 cps, determined graphically; for ED50: Mus musculus, ip
Experimental: 1. Analgesic Activity (Electrical Stimulation Method)
The test was performed essentially in accordance with the methods described in "Journal of the Pharmaceutical Society of Japan," vol 73, p. 212 ff. (1953) and "Folia Pharmacologica Japonica," vol. 65, p. 378 ff. (1969).
Test compound was administered intraperitoneally to groups consisting 10 male mice. The tail of the mouse was electrically stimulated for 5 seconds with interrupted direct current (25 volts, 40 msec., 1 cps.). When no squeak was observed during the electrical stimulation, analgesic effect was evaluated to be positive.
The ED50 (50% effective dose) was determined graphically.

[2] = test system: mice (pentylenetetrazole lethality); assay: Anticonvulsant Activity (pentylenetetrazole-induced death); type: in vivo, mouse; conditions: intraperitoneal; for Anticonvulsant Activity %-Inhibition: 15 min before pentylenetetrazole 150 mg/kg s.c., deaths within 3 hours, at dose equal to analgesic ED50: 40 (1, 2), 30 (3), 28 (4), 200 (5), 170 (6), 200 (7) mg/kg; for A/B (A: ED50 value for analgesic activity; B: ED50 value for anticonvulsant activity): ratio of ED50 values
Experimental: 2. Anticonvulsant Activity
Pentylenetetrazole (150 mg/kg) was administered subcutaneously to groups consisting 6 mice 15 minutes after the intraperitoneal administration of the test compound. The number of dead mice were counted within 3 hours after the administration of pentylenetetrazole. On one hand, the %-inhibition at the dose equal to the ED50 dose for analgesic activity was determined, and on the other, the ED50, the dose required to suppress the lethal rate to 50%, was determined graphically.

5-(3,4-dichlorophenyl)-7-ethyl-1-dimethylcarbamoyl-2,3-dihydro-1H-thieno[2,3-e][1,4]diazepine hydrochloride [Example 6]
Analgesic Activity ED50 [1]: 170 mg/kg

5-o-chlorophenyl-7-ethyl-1-(4-methyl-1-piperazinylcarbonyl)-2,3-dihydro-1H-thieno[2,3-e][1,4]diazepine dihydrochloride 1/2 -hydrate [Example 4]
Analgesic Activity ED50 [1]: 28 mg/kg

5-o-chlorophenyl-7-ethyl-1-piperidinocarbonyl-2,3-dihydro-1H-thieno[2,3-e][1,4]diazepine hydrochloride [Example 3]
Anticonvulsant Activity %-Inhibition [2]: 0% | A/B (A: ED50 value for analgesic activity; B: ED50 value for anticonvulsant activity) [2]: < 0.4

7-ethyl-1-dimethylcarbamoyl-5-phenyl-2,3-dihydro-1H-thieno[2,3-e][1,4]diazepine hydrochloric [Example 5]
Analgesic Activity ED50 [1]: > 200 mg/kg

Cc1c(N(C)C)c(=O)n(-c2ccccc2)n1C [Aminopyrine, reference compound]
ED50 [1]: 100 mg/kg

CCc1cc2c(s1)N(C(=O)N(C)C)CCN=C2c1ccccc1Cl.Cl [Test Compound 1, 5-o-chlorophenyl-7-ethyl-1-dimethylcarbamoyl-2,3-dihydro-1H-thieno[2,3-e][1,4]diazepine hydrochloride]
ED50 [1]: 40 mg/kg | Anticonvulsant Activity %-Inhibition [2]: 0% | A/B (A: ED50 value for analgesic activity; B: ED50 value for anticonvulsant activity) [2]: < 0.4

CCc1cc2c(s1)N(C(=O)N(C)C)CCN=C2c1ccc(Cl)cc1.Cl [Test Compound 2, 5-p-chlorophenyl-7-ethyl-1-dimethylcarbamoyl-2,3-dihydro-1H-thieno[2,3-e][1,4]diazepine hydrochloride]
ED50 [1]: 40 mg/kg | Anticonvulsant Activity %-Inhibition [2]: 0% | A/B (A: ED50 value for analgesic activity; B: ED50 value for anticonvulsant activity) [2]: < 0.4

CCc1cc2c(s1)N(C(=O)NC)CCN=C2c1ccccc1Cl [Test Compound 7, 5-o-chlorophenyl-7-ethyl-1-methylcarbamoyl-2,3-dihydro-1H-thieno[2,3-e][1,4]diazepine, reference compound]
ED50 [1]: 200 mg/kg | Anticonvulsant Activity %-Inhibition [2]: 100% | A/B (A: ED50 value for analgesic activity; B: ED50 value for anticonvulsant activity) [2]: 2 - 4

— patent US4010184A, “Thienodiazepines” (Yoshitomi Pharmaceutical Industries, Ltd., priority 1973, dated 1977)
